Measured values published in US10738028B2, “Spiro three-membered ring, spiro five-membered ring peptide deformylase inhibitor and use thereof in antibacteria and anti-tumor” (priority 2016, dated 2020).
Converted amounts (≈) assume the structure as drawn.

Tests used:
[1] = due to instability in metabolism in the body; cited from earlier work
[2] = test system: methemoglobin in blood samples of three healthy volunteers; assay: Toxicity on methemoglobin in vitro (whole blood with S9 and NADPH, absorbance at 630 nm); assay type: cell-based, human; conditions: 500 μM compound; whole blood + S9 + NADPH; 5 hours at 37° C.
Method in brief: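 Fresh EDTA whole blood from three healthy volunteers incubated 5 h at 37 °C with human liver S9 (2 mg/mL), NADPH-generating system and compound at 500 μM final. Lysed in 1% Triton X-100; MetHb % from 630 nm absorbance relative to ferricyanide-oxidized blood.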

[3] = test system: Streptococcus pneoumoniae (SPN); assay: MIC, two-fold agar dilution (CLSI), clinical isolates; assay type: cell-based
Method in brief: (§1)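 Susceptibility was tested using CLSI two-fold agar dilution against the strains examined.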

[4] = test system: methicillin-resistant Staphylococcus epidermidis (MRSE); assay: as above; assay type: cell-based
Method in brief: as §1

[5] = test system: methicillin-sensitive Staphylococcus epidermidis (MSSE); assay: as above; assay type: cell-based
Method in brief: as §1

[6] = test system: Escherichia coli (including ESBLs, non-ESBLs); assay: as above; assay type: cell-based
Method in brief: as §1

[7] = test system: Enterococcus faecium (EFM); assay: as above; assay type: cell-based
Method in brief: as §1

[8] = test system: methicillin-sensitive Staphylococcus aureus (MSSA); assay: as above; assay type: cell-based
Method in brief: as §1

[9] = test system: Enterococcus faecalis (EFA); assay: as above; assay type: cell-based
Method in brief: as §1

[10] = test system: methicillin-resistant Staphylococcus aureus (MRSA); assay: as above; assay type: cell-based
Method in brief: as §1

[11] = test system: Moraxella catarrhalis (BCA); assay: as above; assay type: cell-based
Method in brief: as §1

[12] = at a high dose; Clin. Pharmacol. Ther. 2011, 90, 256; cited from earlier work

CCCCC[C@H](CC(=O)NO)C(=O)N[C@H](C(=O)N1CCC[C@H]1CO)C(C)C [Actinonin]
activity in vivo [1]: no activity in vivo

CCCC[C@H](CN(O)C=O)C(=O)N1CCC[C@H]1C(=O)Nc1ccc(F)c[n+]1[O-] [LBM415, reference compound]
MetHb % (n = 3) [2]: 3.05 ± 0.01%
Anti-bacterial activity (MIC) ([3]; strain SPN 16-2): 2 µg/mL
Anti-bacterial activity (MIC) ([3]; strain SPN 16-4): 2 µg/mL
Anti-bacterial activity (MIC) ([4]; strain MRSE 15-1): 0.125 µg/mL
Anti-bacterial activity (MIC) ([4]; strain MRSE 15-2): 0.125 µg/mL
Anti-bacterial activity (MIC) ([4]; strain MRSE 15-3): 0.06 µg/mL
Anti-bacterial activity (MIC) ([4]; strain MRSE 15-7): 0.125 µg/mL
Anti-bacterial activity (MIC) ([5]; strain MSSE 15-3): 0.06 µg/mL
Anti-bacterial activity (MIC) ([5]; strain MSSE 15-4): 0.5 µg/mL
Anti-bacterial activity (MIC) ([5]; strain MSSE 15-5): 0.06 µg/mL
Anti-bacterial activity (MIC) ([5]; strain MSSE 15-6): 128 µg/mL
Anti-bacterial activity (MIC) ([6]; strain ECO+ 15-1): 64 µg/mL
Anti-bacterial activity (MIC) ([6]; strain ECO+ 15-2): 64 µg/mL
Anti-bacterial activity (MIC) ([6]; strain ECO+ 15-3): 64 µg/mL
Anti-bacterial activity (MIC) ([6]; strain ECO+ 15-4): 64 µg/mL
Anti-bacterial activity (MIC) ([6]; strain ECO− 15-1): 64 µg/mL
Anti-bacterial activity (MIC) ([6]; strain ECO− 15-2): 64 µg/mL
Anti-bacterial activity (MIC) ([6]; strain ECO− 15-3): 64 µg/mL
Anti-bacterial activity (MIC) ([6]; strain ECO− 15-4): 64 µg/mL
Anti-bacterial activity (MIC) ([7]; strain EFM 15-1): 2 µg/mL
Anti-bacterial activity (MIC) ([7]; strain EFM 15-2): 2 µg/mL
Anti-bacterial activity (MIC) ([7]; strain EFM 15-3): 4 µg/mL
Anti-bacterial activity (MIC) ([7]; strain EFM 15-4): 8 µg/mL
Anti-bacterial activity (MIC) ([7]; strain EFM 15-5): 4 µg/mL
Anti-bacterial activity (MIC) ([7]; strain EFM 15-6): 4 µg/mL
Anti-bacterial activity (MIC) ([8]; strain MSSA 15-3): 0.5 µg/mL
Anti-bacterial activity (MIC) ([8]; strain MSSA 15-4): 0.5 µg/mL
Anti-bacterial activity (MIC) ([8]; strain MSSA 15-5): 0.5 µg/mL
Anti-bacterial activity (MIC) ([8]; strain MSSA 15-6): 0.5 µg/mL
Anti-bacterial activity (MIC) ([9]; strain EFA 15-1): 2 µg/mL
Anti-bacterial activity (MIC) ([9]; strain EFA 15-2): 2 µg/mL
Anti-bacterial activity (MIC) ([9]; strain EFA 15-3): 2 µg/mL
Anti-bacterial activity (MIC) ([9]; strain EFA 15-4): 2 µg/mL
Anti-bacterial activity (MIC) ([9]; strain EFA 15-5): 2 µg/mL
Anti-bacterial activity (MIC) ([9]; strain EFA 15-6): 128 µg/mL
Anti-bacterial activity (MIC) ([9]; strain EFA 15-9): 128 µg/mL
MIC ([10]; Staphylococcus aureus, MRSA, range over strains, read-out: minimum inhibitory concentration MIC against methicillin-resistant Staphylococcus (MRSA)): 0.5 to 1 µg/mL (≈ 1.26 to 2.52 µM)
Anti-bacterial activity (MIC) ([10]; strain MRSA 15-1): 1 µg/mL
Anti-bacterial activity (MIC) ([10]; strain MRSA 15-2): 1 µg/mL
Anti-bacterial activity (MIC) ([10]; strain MRSA 15-3): 1 µg/mL
Anti-bacterial activity (MIC) ([10]; strain MRSA 15-4): 0.5 µg/mL
MIC ([11]; Moraxella catarrhalis, 7 clinical isolates, range over strains, read-out: Moraxella catarrhalis (n = 7) MIC): 0.5 to 2 µg/mL (≈ 1.26 to 5.05 µM)
Anti-bacterial activity (MIC) ([11]; strain BCA 14-1): 2 µg/mL
Anti-bacterial activity (MIC) ([11]; strain BCA 14-4): 2 µg/mL
Anti-bacterial activity (MIC) ([11]; strain BCA 14-5): 1 µg/mL
Anti-bacterial activity (MIC) ([11]; strain BCA 14-6): 2 µg/mL
Anti-bacterial activity (MIC) ([11]; strain BCA 14-7): 0.5 µg/mL
Anti-bacterial activity (MIC) ([11]; strain BCA 14-8): 0.5 µg/mL
Anti-bacterial activity (MIC) ([11]; strain BCA 14-10): 0.5 µg/mL
adverse effect in Phase I clinical trial [12]: could cause methemoglobinemia at a high dose
